Test [1] deals with THP1 cells. Briefly: Alkaline comet assay in THP1 cells. The format is cell-based, human. Here is the method:
Comet assays: DNA damage in individual cells was assessed using OxiSelect™ Comet Assay Kits (Cell Biolabs, Cat #STA-351) according to the manufacturer's protocol. THP1 cells were treated as indicated, collected by centrifugation, washed twice with ice-cold PBS, and resuspended in cold PBS at 1×10^5 cells/ml. Cells were mixed with molten Comet agarose (1:10, v/v) and immediately transferred to wells of the Comet Agarose Base Layer (pre-prepared by adding 75 μl molten agarose to Comet slides) in 75 μl aliquots. Cells were embedded on the agarose by cooling the gel at 4° C. for 15 minutes in the dark and then lysed in pre-chilled lysis buffer for 60 minutes at 4° C. The cell-containing slides were neutralized in pre-chilled alkaline buffer for 30 minutes and then carefully transferred to a horizontal electrophoresis chamber. Electrophoresis was conducted in cold Alkaline Electrophoresis Solution (300 mM NaOH, pH>13, 1 mM EDTA) for 30 minutes at 1 volt/cm (300 mA current). The samples were washed three times in pre-chilled water and immersed in 70% ethanol for 5 minutes. The cells were subsequently air dried and their DNA stained with 100 μl/well of diluted Vista Green DNA Dye. After incubating at room temperature, cells were finally visualized under a fluorescence microscope using an FITC filter. Comet length was quantified using OpenComet software as described before (Gyori et al., 2014).

The subject of a further test is PARP1, PARP2, Tankyrase. Briefly: PARP1, PARP2, Tankyrase abundance immunoblot. The class given is cell-based, human. On the technique in general: A western blot detects proteins with antibodies after separation by electrophoresis.
For test [2], the system named is THP1 cells. Nature of the test: Quantitative RT-PCR gene expression in THP1 cells. The format is cell-based, human. An excerpt: Quantitative RT-PCR analysis: Cells collected at indicated time points were washed with ice cold PBS and lysed in lml Trizol (Invitrogen). Total RNA extracted according to the manufacturer's recommendations was DNase treated and reverse transcribed to make cDNA with a QuantiTect Reverse Transcription kit (QIAGEN). The cDNAs synthesized were amplified by real-time quantitative PCR (Applied Biosystems 7900 HT Fast Real-Time PCR system) with Power SYBR green Master Mix. Relative gene expression was determined by the 2-ΔΔCt method, and 18S rRNA or GAPDH was used as an internal control. Primer details in Table 2.

The next test concerns U2OS-STING cells. Briefly: RAD51 and RPA70 foci in EdU+ U2OS-STING cells. The format is cell-based, human. Particulars: EdU-positive S-phase cells, Camptothecin 5 μM 16 hours. Here is the method: Immunofluorescence Staining: 16,500 adherent cells/cm^2 were plated on a gelatin coated 8-chamber slide (VWR, Catalogue #62407-296) and treated as indicated. Media was removed and cells were washed with 1×PBS with Ca^2+/Mg^2+ and fixed with 4% PFA for 20 minutes. Fixed cells were permeabilized with PBS+0.1% Triton-X and washed 3 times with PBS+0.1% Tween20. After treatment as indicated, non-adherent THP1 cells were collected by centrifugation, washed in cold PBS and fixed in PFA. Post-fixation, they were washed with PBS, spotted on gelatin coated “PTFE” Printed Slides (Electron Microscopy Sciences, Cat #63424-06), and air-dried. For γH2AX staining, permeabilized cells were blocked in Serum-free DAKO Protein Block (Agilent, Catalogue #X0909) for 1 hr at room temperature. Cells were incubated in primary antibody (γH2AX, 1:500; anti-HA, 1:100; Table 1) in DAKO antibody diluent at 4° C. overnight on a rocker platform. […]
EdU incorporated cells were detected by confocal microscopy after Click-iT® EdU labeling following the manufacturer's protocol (Click-iT™ EdU Alexa Fluor™ 594 Imaging Kit, Thermo Fisher Cat #C10339).

The subject of the next test is PARylation. Nature of the test: PolyADP-ribosylation (PARylation) immunoblot. The class given is cell-based, human. An excerpt: Cells were collected by centrifugation, washed once with ice-cold PBS, lysed in RIPA buffer and analyzed by western blot to detect PARylation using pADPr Antibody (Santa Cruz sc-56198).
For another test, the system named is Crassostrea virginica. Briefly: DDR in oysters after adductor muscle injection. The class given is in vivo. The following applies: hemocytes; cGAMP 25 μg/50 gm, doxorubicin 1 μg/50 gm oyster weight, 16 hours. Here is the method: Oysters: Wild adult eastern oysters (Crassostrea virginica) of both male and female sexes ranging from 2 cm-7 cm in length (1 to 3 years in age) were collected from a natural oyster reef on Virgnia's Eastern Shore. Following collection, the diploid oysters were placed on ice and transported approximately 3 h to the University of Virginia main campus in Charlottesville, VA. There they were stored in an aerated aquarium containing water supplemented with Instant Ocean® Aquarium Sea Salt (50 gm/l). […] Treated oysters were kept at 4° C. in the dark for 16 hours after which they were shucked, had their hemolymph/tissues harvested for analysis by western blotting, and dead oyster and shell were disposed of.

For the compound `Nc1nc2c(ncn2[C@@H]2O[C@@H]3COP(=O)(O)O[C@H]4[C@@H](O)[C@H](n5cnc6c(N)ncnc65)O[C@@H]4COP(=O)(O)O[C@@H]2[C@@H]3O)c(=O)[nH]1` [cGAMP, cyclic guanosine monophosphate-adenosine monophosphate], the “camptothecin-induced DNA damage (comet tail length)” value in the test on THP1 cells [1] (THP1, cGAMP 6 hours then 1 μM camptothecin 16 hours) was “exacerbates camptothecin-induced DNA damage”. For the same compound, the “DNA strand breaks in comet assay” value with THP1 cells [1] (THP1 cells, cGAMP 16 hours) was “no strand breaks were observed”. For the same compound, the “abundance of PARP1” value with PARP1, PARP2, Tankyrase (THP1 and HEK293 cells) is reported as “significantly augmented”. In addition, the “abundance of PARP1, PARP2, Tankyrase” value in the test with PARP1, PARP2, Tankyrase (cGAMP-stimulated cells) is given as “no decrease in the abundance of PARP1, PARP2, or Tankyrase”. For the same compound, the “dependence of DDR gene induction on STING and TBK1” value in the test with THP1 cells [2] (STING−/− THP1, 10 μM MRT67307 2 hours then cGAMP 6 hours) is “dependent on STING and TBK1”. Further, in the test on THP1 cells [2] (THP1, exogenous cGAMP 1 μg vs transfected HT-DNA 2 μg), the “induction of IFN genes (IFN-β and ISGs)” value is “comparable to that of cytosolic DNA-induced, endogenously produced cGAMP”. Besides, in the test with THP1 cells [2] (WT THP1, 6 hours), the CDKN1A/p21 transcript result is “strong induction of CDKN1A/p21” and the “transcript abundance of E2F target genes” value is given as “decreased transcript abundance of E2F target genes”. Besides, in the test with U2OS-STING cells, the “DNA damage-induced RAD51 and RPA foci formation” value is “suppressed DNA damage-induced RAD51 and RPA foci formation in EdU-positive S-phase cells”. In addition, the “cGAMP-induced suppression of protein PARylation in ATM-inhibited cells” value in the test on PARylation (25 μM KU-55933) was “proceeded normally in ATM-inhibited cells”. The “total cellular level of protein PARylation” value in the test on PARylation (WT THP1, H2O2 or doxorubicin) is “substantially reduced total cellular level of protein PARylation”. In addition, the “PARP1 PARylation” value with PARylation (WT THP1, cGAMP 6 hours, H2O2 10 minutes, anti-PARP1 IP) is reported as “notably reduced”. Further, the “STING requirement for cGAMP-induced suppression of protein PARylation” value with PARylation (WT and STING−/− THP1, 250 μM H2O2 10 minutes) is recorded as “STING was required”. Further, in the test with Crassostrea virginica, the “TBK1 phosphorylation (pTBK1)” value is reported as “TBK1 phosphorylation” and the γH2AX entry is recorded as “elevated levels of γH2AX”.

These data come from patent US20240335465A1 (University of Virginia Patent Foundation, priority 2021, published 2024).
